The term IC50 denotes the concentration that inhibits the measured activity by half.

The source of these data is US9856279B2 (AGIOS PHARMACEUTICALS, INC, priority 2011, dated 2018).

One assay deals with HT1080 cells. As to the kind of experiment: Cellular assay for IDH1m inhibitors: inhibition of 2-HG production (LC-MS, 48 hours) in HT1080 cells. The format is cell-based. The note with it: Homo sapiens, HT-1080; inhibition of 2-HG production, HT1080 cells; read-out: HT1080 IC50. A digest of the protocol: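 5000 cells/well, DMEM + 10% FBS, overnight 37 °C/5% CO2; compound added (0.2% DMSO final), 48 h; medium sampled for LC-MS 2-HG; IC50 vs DMSO control.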

The subject of another assay is U87MG cells. The experiment in a line: Cellular assay for IDH1m inhibitors: inhibition of 2-HG production (LC-MS, 48 hours) in U87MG cells. The format is cell-based. The note with it: Homo sapiens, U-87 MG, inhibition of 2-HG production, U87R132H cells; read-out: U87R132H IC50. How it is done: Cells (e.g., HT1080 or U87MG) and are grown in T125 flasks in DMEM containing 10% FBS, 1× penicillin/streptomycin and 500 ug/mL G418. They are harvested by trypsin and seeded into 96 well white bottom plates at a density of 5000 cell/well in 100 ul/well in DMEM with 10% FBS. No cells are plates in columns 1 and 12. Cells are incubated overnight at 37° C. in 5% CO2. The next day compounds are made up at 2× concentration and 100 ul are added to each cell well. The final concentration of DMSO is 0.2% and the DMSO control wells are plated in row G. The plates are then placed in the incubator for 48 hours. At 48 hours, 100 μl of media is removed from each well and analyzed by LC-MS for 2-HG concentrations. The cell plate is placed back in the incubator for another 24 hours. At 72 hours post compound addition, 10 mL/plate of Promega Cell Titer Glo reagent is thawed and mixed. The cell plate is removed from the incubator and allowed to equilibrate to room temperature. Then 100 ul of reagent is added to each well of media. The cell plate is then placed on an orbital shaker for 10 minutes and then allowed to sit at room temperature for 20 minutes. The plate is then read for luminescence with an integration time of 500 ms.
The IC50 for inhibition of 2-HG production (concentration of test compound to reduce 2HG production by 50% compared to control) in these two cell lines for various compounds of formula I is set forth in Table 4 above.

A further assay has as its target IDH1 R132H (Homo sapiens, UniProt O75874, R132H). The experiment in a line: Assay for IDH1 R132H inhibitors (NADPH/aKG, resazurin detection). The class given is biochemical. The conditions noted are these: enzyme assay of Example 12; read-out: IDH1R132H IC50. In a few lines:
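Compound added to substrate mix (8 uM NADPH, 2 mM aKG), then enzyme mix (0.2 μg/ml IDH1 R132H); 50 min RT in 20 mM Tris pH 7.5, 150 mM NaCl, 10 mM MgCl2, 0.03% BSA. Resazurin detection mix (30 μM) 5 min RT; resorufin fluorescence Ex544/Em590.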
For orientation: Alamar Blue is a resazurin reagent that responds to reducing activity.

IDH1 R132H, sequence (O75874 whole entry R132H): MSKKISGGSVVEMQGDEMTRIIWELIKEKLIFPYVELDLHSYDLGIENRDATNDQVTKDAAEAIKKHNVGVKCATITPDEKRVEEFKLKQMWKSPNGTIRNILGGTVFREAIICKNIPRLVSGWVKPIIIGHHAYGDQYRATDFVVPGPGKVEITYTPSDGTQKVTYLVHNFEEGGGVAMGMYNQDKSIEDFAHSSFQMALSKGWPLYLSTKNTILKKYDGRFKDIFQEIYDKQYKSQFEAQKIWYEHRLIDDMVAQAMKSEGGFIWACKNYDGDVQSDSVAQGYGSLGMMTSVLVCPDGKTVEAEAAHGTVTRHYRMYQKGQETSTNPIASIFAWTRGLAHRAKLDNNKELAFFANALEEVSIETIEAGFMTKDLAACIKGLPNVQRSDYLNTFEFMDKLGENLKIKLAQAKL

`COCCC(=O)N1CCN(c2nc(C(C)C)c(OCCNC(=O)OCc3ccccc3)cc2C#N)C[C@H]1C` [Compound 272, (R)-benzyl 2-(5-cyano-2-isopropyl-6-(4-(3-methoxypropanoyl)-3-methylpiperazin-1-yl)pyridin-3-yloxy)ethylcarbamate]: the IC50 was 1000 to 10000 nM in the assay on HT1080 cells, 1000 to 10000 nM with U87MG cells and 500 to 1000 nM at IDH1 R132H.

With `COCCC(=O)N1CCN(c2nc(C3CC3)c(-c3ccccc3C#N)cc2C#N)C[C@H]1C(C)C` [Compound 274, (R)-5-(2-cyanophenyl)-6-cyclopropyl-2-(3-isopropyl-4-(3-methoxypropanoyl)piperazin-1-yl)nicotinonitrile], the IC50 in the assay with HT1080 cells fell in the range of 1000 to 10000 nM; with U87MG cells, 1000 to 10000 nM; at IDH1 R132H it was 500 to 1000 nM.

Take `COCCC(=O)N1CCN(c2nc(C3CC3)c(-c3ccccc3OC)cc2C#N)C[C@H]1C(C)C` [Compound 275, (R)-6-cyclopropyl-2-(3-isopropyl-4-(3-methoxypropanoyl)piperazin-1-yl)-5-(2-methoxyphenyl)nicotinonitrile]: the results for the concentration for half-maximal inhibition (IC50) with HT1080 cells, with U87MG cells and at IDH1 R132H were 1000 to 10000 nM, 1000 to 10000 nM and less than 500 nM, respectively.

Consider `COCCC(=O)N1CCN(c2nc(C3CC3)c(-c3ccccc3OC(F)(F)F)cc2C#N)C[C@H]1C(C)C` [Compound 276, (R)-6-cyclopropyl-2-(3-isopropyl-4-(3-methoxypropanoyl)piperazin-1-yl)-5-(2-(trifluoromethoxy)phenyl)nicotinonitrile], for which the IC50 with HT1080 cells was 1000 to 10000 nM; with U87MG cells it was 1000 to 10000 nM; at IDH1 R132H it was less than 500 nM.

As for `COCCC(=O)N1CCN(c2nc(C3CC3)c(OC(C)c3ccccc3)cc2C#N)C[C@H]1C` (stereo partly drawn) [Compound 277, 6-cyclopropyl-2-((R)-4-(3-methoxypropanoyl)-3-methylpiperazin-1-yl)-5-(1-phenylethoxy)nicotinonitrile], the half-inhibitory concentration (IC50) in the assay on HT1080 cells is 1000 to 10000 nM; in the assay on U87MG cells, 1000 to 10000 nM; on IDH1 R132H, less than 500 nM.

For `COCCC(=O)N1CCN(c2nc(C3CC3)c(-c3ccc4cc(OC)ccc4c3)c(C)c2C#N)C[C@H]1C` [Compound 278, (R)-6-cyclopropyl-5-(6-methoxynaphthalen-2-yl)-2-(4-(3-methoxypropanoyl)-3-methylpiperazin-1-yl)-4-methylnicotinonitrile], the figures for the IC50 in the assay with HT1080 cells, with U87MG cells and on IDH1 R132H were 1000 to 10000 nM, 1000 to 10000 nM and 500 to 1000 nM, respectively.

Regarding `COCCC(=O)N1CCN(c2nc(C3CC3)c(OCc3ccccn3)cc2C#N)C[C@H]1C` [Compound 279, (R)-6-cyclopropyl-2-(4-(3-methoxypropanoyl)-3-methylpiperazin-1-yl)-5-(pyridin-2-ylmethoxy)nicotinonitrile], the IC50 in the assay with HT1080 cells was 1000 to 10000 nM; with U87MG cells, 1000 to 10000 nM; at IDH1 R132H it was 500 to 1000 nM.

`COCCC(=O)N1CCN(c2nc(C3CC3)c(OCc3cccc(OC)c3)cc2C#N)C[C@H]1C` [Compound 280, (R)-6-cyclopropyl-5-(3-methoxybenzyloxy)-2-(4-(3-methoxypropanoyl)-3-methylpiperazin-1-yl)nicotinonitrile]: the values for the IC50 in the assay on HT1080 cells, in the assay with U87MG cells and on IDH1 R132H were 1000 to 10000 nM, 1000 to 10000 nM and less than 500 nM, respectively.

With `COCCC(=O)N1CCN(c2nc(C3CC3)c(-c3cccc(C#N)c3)cc2C#N)C[C@H]1C` [Compound 283, (R)-5-(3-cyanophenyl)-6-cyclopropyl-2-(4-(3-methoxypropanoyl)-3-methylpiperazin-1-yl)nicotinonitrile], the half-inhibitory concentration (IC50) in the assay on HT1080 cells was 500 to 1000 nM; with U87MG cells it was 1000 to 10000 nM; on IDH1 R132H, less than 500 nM.

For the molecule `COCCC(=O)N1CCN(c2nc(C3CC3)c(-c3cccc(N)c3)cc2C#N)C[C@H]1C` [Compound 285, (R)-5-(3-aminophenyl)-6-cyclopropyl-2-(4-(3-methoxypropanoyl)-3-methylpiperazin-1-yl)nicotinonitrile], the IC50 in the assay on HT1080 cells was 500 to 1000 nM; in the assay on U87MG cells, 1000 to 10000 nM; at IDH1 R132H, less than 500 nM.

As for `COCCC(=O)N1CCN(c2nc(C3CC3)c(-c3cccc4cnccc34)cc2C#N)C[C@H]1C` [Compound 286, (R)-6-cyclopropyl-5-(isoquinolin-5-yl)-2-(4-(3-methoxypropanoyl)-3-methylpiperazin-1-yl)nicotinonitrile], the half-inhibitory concentration (IC50) in the assay on HT1080 cells, in the assay with U87MG cells and at IDH1 R132H was less than 500 nM in each case.

As to `COCCC(=O)N1CCN(c2nc(C3CC3)c(-c3cccc4[nH]ccc34)cc2C#N)C[C@H]1C` [Compound 287, (R)-6-cyclopropyl-5-(1H-indol-4-yl)-2-(4-(3-methoxypropanoyl)-3-methylpiperazin-1-yl)nicotinonitrile], the IC50 is 1000 to 10000 nM in the assay on HT1080 cells, 1000 to 10000 nM in the assay on U87MG cells and less than 500 nM on IDH1 R132H.

Take `COCCC(=O)N1CCN(c2nc(C3CC3)c(-c3cccc4ncccc34)cc2C#N)C[C@H]1C` [Compound 288, (R)-6-cyclopropyl-2-(4-(3-methoxypropanoyl)-3-methylpiperazin-1-yl)-5-(quinolin-5-yl)nicotinonitrile]: the IC50 in the assay on HT1080 cells, with U87MG cells and on IDH1 R132H was less than 500 nM throughout.

Regarding `COCCC(=O)N1CCN(c2nc(C3CC3)c(OCc3cccc(C(=O)OC)c3)cc2C#N)C[C@H]1C` [Compound 292, (R)-methyl 3-((5-cyano-2-cyclopropyl-6-(4-(3-methoxypropanoyl)-3-methylpiperazin-1-yl)pyridin-3-yloxy)methyl)benzoate], the values for the IC50 in the assay with HT1080 cells, with U87MG cells and on IDH1 R132H were 500 to 1000 nM, 1000 to 10000 nM and less than 500 nM, respectively.

Consider `COCCC(=O)N1CCN(c2nc(C3CC3)c(OCc3ccc(C(=O)OC)cc3)cc2C#N)C[C@H]1C` [Compound 293, (R)-methyl 4-((5-cyano-2-cyclopropyl-6-(4-(3-methoxypropanoyl)-3-methylpiperazin-1-yl)pyridin-3-yloxy)methyl)benzoate], for which the IC50 with HT1080 cells is 1000 to 10000 nM; in the assay on U87MG cells, 1000 to 10000 nM; on IDH1 R132H it was less than 500 nM.

Take `COCCC(=O)N1CCN(c2nc(C3CC3)c(OCc3cccc(C#N)c3)cc2C#N)C[C@H]1C` [Compound 294, (R)-5-(3-cyanobenzyloxy)-6-cyclopropyl-2-(4-(3-methoxypropanoyl)-3-methylpiperazin-1-yl)nicotinonitrile]: the values for the IC50 in the assay with HT1080 cells, in the assay with U87MG cells and on IDH1 R132H were 500 to 1000 nM, 500 to 1000 nM and less than 500 nM, respectively.

`COCCC(=O)N1CCN(c2nc(C3CC3)c(-c3ccc4[nH]ncc4c3)cc2C#N)C[C@H]1C` [Compound 295, (R)-6-cyclopropyl-5-(1H-indazol-5-yl)-2-(4-(3-methoxypropanoyl)-3-methylpiperazin-1-yl)nicotinonitrile]: the IC50 in the assay with HT1080 cells was 500 to 1000 nM; in the assay with U87MG cells, 500 to 1000 nM; on IDH1 R132H, less than 500 nM.

Turning to `COCCC(=O)N1CCN(c2nc(C3CC3)c(-c3ccc(C(N)=O)cc3)cc2C#N)C[C@H]1C` [Compound 296, (R)-4-(5-cyano-2-cyclopropyl-6-(4-(3-methoxypropanoyl)-3-methylpiperazin-1-yl)pyridin-3-yl)benzamide], the IC50 was 500 to 1000 nM with HT1080 cells, 500 to 1000 nM in the assay with U87MG cells and less than 500 nM at IDH1 R132H.

For `COCCC(=O)N1CCN(c2nc(C3CC3)c(-c3cccc(CCO)c3)cc2C#N)C[C@H]1C` [Compound 297, (R)-6-cyclopropyl-5-(3-(2-hydroxyethyl)phenyl)-2-(4-(3-methoxypropanoyl)-3-methylpiperazin-1-yl)nicotinonitrile], the figures for the IC50 in the assay with HT1080 cells, in the assay on U87MG cells and at IDH1 R132H were 500 to 1000 nM, 1000 to 10000 nM and less than 500 nM, respectively.

Regarding `COCCC(=O)N1CCN(c2nc(C3CC3)c(-c3ccc(F)cc3)c(C)c2C#N)C[C@H]1C1CC1` [Compound 299, (R)-6-cyclopropyl-2-(3-cyclopropyl-4-(3-methoxypropanoyl)piperazin-1-yl)-5-(4-fluorophenyl)-4-methylnicotinonitrile], the half-maximal inhibitory concentration (IC50) was 500 to 1000 nM in the assay with HT1080 cells, 500 to 1000 nM in the assay on U87MG cells and less than 500 nM at IDH1 R132H.

As for `COCCC(=O)N1CCN(c2nc(C3CC3)c(OCc3ccc(CO)cc3)cc2C#N)C[C@H]1C` [Compound 301, (R)-6-cyclopropyl-5-(4-(hydroxymethyl)benzyloxy)-2-(4-(3-methoxypropanoyl)-3-methylpiperazin-1-yl)nicotinonitrile], the IC50 was 1000 to 10000 nM in the assay with HT1080 cells, 1000 to 10000 nM with U87MG cells and less than 500 nM on IDH1 R132H.
